Assay results reported in patent US20130012485A1, “ORGANIC COMPOUNDS” (priority 2006, published 2013).

target: T1, human DPP-IV (Homo sapiens, UniProt P27487); experiment: Activity assay: inhibitory activity to human DPP-IV, fluorogenic substrate H-Gly-Pro-AMC; type: biochemical; conditions: H-Gly-Pro-AMC 10 μM, room temperature, monitored for 1 hour
T1 construct: Human DPP-IV consisting of amino acids 39 to 766 followed by a C-terminal Streptavidin-tag; Streptavidin-tag (C); made in house
Protocol: Various Example compounds were tested for their inhibitory activity to human DPP-IV.
Human DPP-IV consisting of amino acids 39 to 766 followed by a C-terminal Streptavidin-tag was expressed using the baculovirus system and purified to >80% purity. The enzyme was stored in 25 mM Tris buffer, pH 9.0, containing 300 mM NaCl at −80° C.
The fluorogenic substrates H-Gly-Pro-AMC was purchased from Bachem AG (Bubendorf, Switzerland). The substrate was kept as a 5 mM stock solution in DMSO at −20° C. All other chemicals were purchased from Sigma (Buchs, Switzerland).
The assay buffer for the DPP-IV reaction was 25 mM Tris/HCl, pH 7.5, containing 140 mM NaCl, 10 mM KCl and 0.05% (w/v) CHAPS.
The test compounds were dissolved in 90% DMSO/10% H2O (v/v). Serial dilutions of the compounds from 3 mM to 0.03 μM in 90% DMSO/10% H2O (v/v) followed by a 1:33.3 dilution in assay buffer was done in 96-well polypropylene plates using a CyBio Dilus 8-channel pipettor (CyBio AG, Jena, Germany) with tip change after each pipetting step. The compound solutions as well as the substrate and the enzyme solutions were transferred to the assay plates (384-well black Cliniplate; cat. no. 95040020 Labsystems Oy, Finland) by means of a CyBi-Well 96-channel pipettor (CyBio AG, Jena, Germany).
Enzyme kinetics were measured by mixing 10 μl of a 3-fold concentrated substrate solution in assay buffer (final substrate concentration was 10 μM) with 10 μl of the corresponding compound solution. The reactions were initiated by addition of 10 μl of a 3-fold concentrated solution of the enzyme in assay buffer. Final enzyme (active site) concentrations in the assay was […] for DPP-IV. Fluorescence product (AMC) formation was monitored for 1 hour at room temperature at 35 second intervals by measuring the fluorescence emission at 500 nm using an exitation wavelength of 350 nm in a TECAN Ultra fluorescence reader (TECAN, Maennedorf, Switzerland). The fluorescence in each well was excited by one flash per measurement. The Origin software package (Origin 7.5 Mircocal, Northampton, Mass., USA) was used to generate all graphs and to perform the IC50 calculations.

T1 sequence (P27487 39-766): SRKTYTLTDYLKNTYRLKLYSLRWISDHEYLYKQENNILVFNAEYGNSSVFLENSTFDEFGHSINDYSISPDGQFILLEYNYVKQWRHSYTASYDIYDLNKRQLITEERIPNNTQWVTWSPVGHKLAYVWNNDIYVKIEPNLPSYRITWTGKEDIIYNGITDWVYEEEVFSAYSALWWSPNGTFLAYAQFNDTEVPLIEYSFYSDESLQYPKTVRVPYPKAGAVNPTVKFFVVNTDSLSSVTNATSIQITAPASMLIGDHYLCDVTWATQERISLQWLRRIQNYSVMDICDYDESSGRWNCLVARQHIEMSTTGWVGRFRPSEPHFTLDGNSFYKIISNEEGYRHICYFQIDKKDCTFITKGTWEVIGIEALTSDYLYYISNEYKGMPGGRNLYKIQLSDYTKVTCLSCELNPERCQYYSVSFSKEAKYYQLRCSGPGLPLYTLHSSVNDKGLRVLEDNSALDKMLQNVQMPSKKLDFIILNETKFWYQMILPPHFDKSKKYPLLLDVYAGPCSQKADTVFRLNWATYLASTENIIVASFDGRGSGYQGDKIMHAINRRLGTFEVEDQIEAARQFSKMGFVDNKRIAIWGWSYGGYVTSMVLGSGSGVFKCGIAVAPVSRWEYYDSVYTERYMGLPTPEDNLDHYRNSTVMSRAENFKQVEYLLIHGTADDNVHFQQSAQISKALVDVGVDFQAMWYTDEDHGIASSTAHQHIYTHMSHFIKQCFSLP

| Structure (SMILES) | IC50 |
| --- | --- |
| CS(=O)(=O)c1ccc(CN[C@H]2CC[C@](CN)(c3cccc(Cl)c3)CC2)cc1 | 400 nM |
| NC[C@]1(c2cccc(Cl)c2)CC[C@H](N(Cc2ccn[nH]2)C(=O)c2cccnc2)CC1 | 450 nM |
| Cc1cccc(C2(CN)CCC(N3CCn4c(nnc4C(F)(F)F)C3)C2)c1 (stereo not drawn) | 5050 nM |
| CCOC(=O)N1CCC(N2CC(=O)N([C@H]3CC[C@](CN)(c4cccc(Cl)c4)CC3)CC2=O)CC1 | 100 nM |
| Cn1ccc2cc(C(=O)N[C@H]3CC[C@](CN)(c4cccc(Cl)c4)CC3)ccc21 | 50 nM |
| NC[C@]1(c2cccc(Cl)c2)CC[C@H](N2C(=O)OC[C@H]2Cc2ccccc2)CC1 | 200 nM |

Continued, values first:

| IC50 | Structure (SMILES) |
| --- | --- |
| 11600 nM | Cc1nc(=O)c2c([nH]1)CCC(CN)(c1cccc(Cl)c1)C2 (stereo not drawn) |
| 850 nM | Cc1n[nH]c(C)c1CCn1cc(-c2ccc(=O)n([C@H]3CC[C@](CN)(c4cccc(Cl)c4)CC3)n2)nn1 |
| 200 nM | NCC1(c2cccc(Cl)c2)CCC(Oc2ccc(Br)cn2)CC1 (stereo not drawn) |
| 850 nM | CC1CC(=O)N([C@]2(CN)CC[C@@H](N3CCn4c(nnc4C(F)(F)F)C3)CC2)C1 (stereo partly drawn) |
| 250 nM | Cc1ccnc([C@]2(CN)CC[C@@H](N3CCn4c(nnc4C(F)(F)F)C3)CC2)c1 |
| 500 nM | NC[C@]1(c2cccc(Cl)c2)CC[C@H](n2nc(-c3cnn(Cc4ccccc4)c3)ccc2=O)CC1 |
